Experimental data from patent US20140357512A1, “HISTONE DEACETYLASE (HDAC) BIOMARKERS IN MULTIPLE MYELOMA” (priority 2013, published 2014).

Test system: human myeloma cell line MM.1S
Assay: SILAC acetylated-lysine peptide profiling, HDAC inhibitor vs DMSO (light/heavy ratio)
Type: cell-based
From the text: An embodiment of the invention comprises utilizing the SILAC method in order to quantitate changes in protein expression between two or more populations of cells. The SILAC method is a technique based on mass spectrometry that detects differences in protein abundance among samples using non-radioactive isotopic labeling. The SILAC method is known in the art, and described in detail in Ong et al., “Stable Isotope Labeling by Amino Acids in Cell Culture, SILAC, as a Simple and Accurate Approach to Expression Proteomics”, Molecular & Cellular Proteomics, vol. 1, pp. 376-386 (2002), which is incorporated herein by reference in its entirety.
Briefly, the SILAC method involves growing two populations of cells in cell culture. The first population of cells is grown in growth media containing normal amino acids (“normal media”). The second population of cells is grown in media lacking a standard essential amino acid (such as lysine), but is then supplemented with a non-radioactive, isotopically labeled form of that essential amino acid (such as lysine labeled with ^13C atoms, rather than normal ^12C atoms), which is called “heavy media”. When the two populations of cells are each growing in the medium, they incorporate the amino acids into all of their proteins. The growth of cells maintained in the heavy media is no different from that in normal media. All peptides containing the heavy amino acids are heavier than their normal counterparts. The cells from each of the two populations of cells are lysed. The lysates from each of the two cell populations are then combined. The combined cell lysates are then analyzed by mass spectrometry. Pairs of chemically identical peptides of different stable isotope composition can be differentiated in a mass spectrometer due to their difference in mass. The ratio of peak intensities in the mass spectrum for such peptide pairs reflects the abundance ratio for the two proteins.
This example describes SILAC studies that were performed to compare the effects of three different HDAC inhibitors (Compound A, Compound B, and tubastatin A) to a control on a human multiple myeloma cell line. The HDAC inhibitors were also compared amongst themselves to determine differences in their effects.
A human myeloma cell line MM.1S was grown using either ^12C (light) or ^13C (heavy) lysine containing culture medium. The “heavy” cells were treated with DMSO as the control, and the “light” cells were treated with a single HDAC inhibitor at 37° C. for 6 hours. The heavy and light cells were lysed, and the lysates were mixed in 1:1 ratio and digested with the protease trypsin. The acetylated lysine containing peptides (due to the action of the HDAC inhibitor) in the digested peptide pool were captured by a non-specific anti-acetylated lysine antibody cocktail (the antibodies identify both light and heavy acetylated peptides), and subjected to mass spectrometry analysis in order to identify thousands of individual peptides.
Thousands of peptides were identified in pairs (^12C and ^13C) due to their known mass differences. The amino acid sequence and quantitative ratio (Light/Heavy) of a given peptide in two differentially treated cell lysates were then determined and annotated with their possible protein (gene) sources.
As stated above, three HDAC inhibitors (Compound A, Compound B, and Tubastatin A) were used. Thus, the SILAC method was performed three times, with a different HDAC inhibitor compared to a control each time. Accordingly, there are three pairs of quantitative data in the table below, i.e., Compound A:DMSO, Compound B:DMSO, and Tubastatin A:DMSO. A cut-off of 1.30 fold of change (increase or decrease) was then used to determine “changed” or “+” in the table, and any peptides with a fold of change less than 1.3 fold were determined to be “unchanged” or “0” in the table. Those peptides that were not identified were marked as “NA” in the table. […]

O=C(NO)c1cnc(NC2(c3cccc(F)c3)CCCCC2)nc1 [Compound B, 2-((1-(3-fluorophenyl)cyclohexyl)amino)-N-hydroxypyrimidine-5-carboxamide]
L/H ratio of acetylated peptide (ac)AEK(ac)FDCHYCR (SEQ ID NO: 725, four and a half LIM domains protein 1 isoform 5 [20], FHL1): 0.00 log 2 | L/H ratio of acetylated peptide […](ac)VIPK (SEQ ID NO: 726, Endoplasmic reticulum resident protein 29 [48], ERP29): 0.00 log 2 | L/H ratio of acetylated peptide TITMK(ac)QLLR (SEQ ID NO: 728, Branched-chain-amino-acid aminotransferase [281], BCAT2): 0.00 log 2 | L/H ratio of acetylated peptide SK(ac)FVLVK (SEQ ID NO: 729, Endoplasmic reticulum resident protein 29 [54], ERP29): 0.00 log 2 | L/H ratio of acetylated peptide TVGQLYK(ac)EQLAK (SEQ ID NO: 731, Isoform 1 of Myosin-9 [651], MYH9): 0.00 log 2 | L/H ratio of acetylated peptide AAETCQEPK(ac)EFR (SEQ ID NO: 732, NADH dehydrogenase [ubiquinone] 1 alpha subcomplex assembly factor 4 [91], NDUFAF4): 0.00 log 2 | L/H ratio of acetylated peptide ILMEHIHK(ac)LK (SEQ ID NO: 735, 60S ribosomal protein L19 [144], RPL19): 0.00 log 2 | L/H ratio of acetylated peptide K(ac)FDQLLAEEK (SEQ ID NO: 737, Isoform 1 of Myosin-9 [1445], MYH9): 0.00 log 2 | L/H ratio of acetylated peptide FVEFDMK(ac)PVCK (SEQ ID NO: 738, Isoform 2 of LIM and senescent cell antigen-like-containing domain protein 2 [326], LIMS2): 0.00 log 2 | L/H ratio of acetylated peptide KAEAQIAAK(ac)NLDK (SEQ ID NO: 740, Aspartate aminotransferase mitochondrial [90], GOT2): 0.00 log 2 | L/H ratio of acetylated peptide ALCTGEK(ac)GFGYK (SEQ ID NO: 744, Peptidyl-prolyl cis-trans isomerase F mitochondrial [86], PPIF): 0.00 log 2 | L/H ratio of acetylated peptide IYK(ac)SDGIK (SEQ ID NO: 745, ADP/ATP translocase 2 [166], SLC25A5): 0.00 log 2 | L/H ratio of acetylated peptide VPK(ac)TAENFR (SEQ ID NO: 748, Peptidyl-prolyl cis-trans isomerase D [43], PPID): 0.00 log 2 | L/H ratio of acetylated peptide VNCLDK(ac)FWHK (SEQ ID NO: 749, Isoform 1 of LIM and SH3 domain protein 1 [23], LASP1): 0.00 log 2 | L/H ratio of acetylated peptide KGEDFVK(ac)TLK (SEQ ID NO: 750, Malate dehydrogenase mitochondrial [335], MDH2): 0.00 log 2 | L/H ratio of acetylated peptide EAEFTK(ac)SIAK (SEQ ID NO: 751, Signal peptidase complex subunit 2 [191], LOC653566, SPCS2): 0.00 log 2 | L/H ratio of acetylated peptide FEDK(ac)TVAYTEQK (SEQ ID NO: 754, Protein disulfide-isomerase A3 [218], PDIA3): 0.00 log 2 | L/H ratio of acetylated peptide ILEFFGLK(ac)K (SEQ ID NO: 756, Protein disulfide-isomerase [308], P4HB): 0.00 log 2 | light to heavy ratio (L/H ratio) of acetylated peptide, log 2 scale (SFEEK(ac)VENLK (SEQ ID NO: 233), Isoform 1 of Tumor protein D52 [180], TPD52): 0.00 | L/H ratio of acetylated peptide LFAK(ac)[…] (SEQ ID NO: 98) (SFPQ [319], log 2 scale, drug vs DMSO): 0.00 | L/H ratio of acetylated peptide […](ac)MILIGR (SEQ ID NO: 100) (SFXN1 [86], log 2 scale, drug vs DMSO): 0.00 | L/H ratio of acetylated peptide (SFYYK(ac)LR (SEQ ID NO: 395), Fatty acid synthase [2426], FASN): −0.74 log 2 | L/H ratio of acetylated peptide […](ac)TAVAPIER (SEQ ID NO: 11) (SLC25A5 [23], log 2 scale, drug vs DMSO): −0.47 | L/H ratio of acetylated peptide […](ac)DK (SEQ ID NO: 103) (SLC25A5 [92], log 2 scale, drug vs DMSO): 0.00 | L/H ratio of acetylated peptide AFFK(ac)GAWSNVLR (SEQ ID NO: 102) (SLC25A5 [272], log 2 scale, drug vs DMSO): 0.00 | L/H ratio of acetylated peptide […](ac)ANVAK (SEQ ID NO: 101) (SLC25A10 [173], log 2 scale, drug vs DMSO): 0.00 | L/H ratio of acetylated peptide TWEK(ac)LLLAAR (SEQ ID NO: 104) (SNORA6, RPSAP15, SNORA62, RPSA [57], log 2 scale, drug vs DMSO): 0.00 | L/H ratio of acetylated peptide (SQNTK(ac)[…] (SEQ ID NO: 458), Nucleoprotein TPR [713], TPR): −0.45 log 2 | L/H ratio of acetylated peptide (SQSCETK(ac)LLDEK (SEQ ID NO: 410), Isoform 3 of Pro-interleukin-16 [277], IL16): −0.53 log 2 | L/H ratio of acetylated peptide […](ac)YGAIR (SEQ ID NO: 107) (SRSF1 [38], log 2 scale, drug vs DMSO): 0.00 | L/H ratio of acetylated peptide (ac)AEPSAPESK(ac)HK (SEQ ID NO: 108) (STT3B [10], log 2 scale, drug vs DMSO): 0.00 | light to heavy ratio (L/H ratio) of acetylated peptide LQDFK(ac)SFLLK (SEQ ID NO: 582) (Serine hydroxymethyltransferase mitochondrial [469], gene SHMT2, inhibitor:DMSO): 0.00 log 2
